Experimental data: PubChem BioAssay AID226 (DTP/NCI, 2004)
Values joined by “and” are separate entries in the source; they are usually repeats but may differ in a detail not shown here. Equal entries are not always repeated. Toxic doses and inconclusive results are not listed.

Tested on: B6C3F1 mice, intracerebral ependymoblastoma, median survival T/C
Test: NCI In Vivo Anticancer Drug Screen. Data for tumor model Ependymoblastoma (intracerebral) in B6C3F1 mice
Conditions: endpoint: median survival time, higher = longer survival
Method: The antitumor activity of compounds was measured in mice bearing transplantable tumors. Survival or tumor size were measured and the results are expressed as the measurement made in the treated group (T) divided by the measurement made in the vehicle treated control group (C). The tumor model used in this assay is Ependymoblastoma (intracerebral) in B6C3F1 mice

[1] = dose: 50.0 mg/kg/injection, schedule: Q01DX005 (ip), vehicle: Klucel (hydroxypropylcellulose) (HPC)
[2] = dose: 100.0 mg/kg/injection, schedule: Q01DX005 (ip), vehicle: Klucel (hydroxypropylcellulose) (HPC)
[3] = dose: 64.0 mg/kg/injection, schedule: Q01DX005 (ip), vehicle: Klucel (hydroxypropylcellulose) (HPC)
[4] = dose: 128.0 mg/kg/injection, schedule: Q01DX005 (ip), vehicle: Klucel (hydroxypropylcellulose) (HPC)
[5] = dose: 256.0 mg/kg/injection, schedule: Q01DX005 (ip), vehicle: Klucel (hydroxypropylcellulose) (HPC)
[6] = dose: 1.5 mg/kg/injection, schedule: Q01DX005 (ip), vehicle: saline with Tween-80
[7] = dose: 3.0 mg/kg/injection, schedule: Q01DX005 (ip), vehicle: saline with Tween-80
[8] = dose: 6.0 mg/kg/injection, schedule: Q01DX005 (ip), vehicle: saline with Tween-80
[9] = dose: 12.0 mg/kg/injection, schedule: Q01DX005 (ip), vehicle: saline with Tween-80

SMILES: NC(=O)c1ncn(C2OC(CO)C(O)C2O)n1 (stereo unspecified)
- T/C (dose: 20.0 mg/kg/injection, schedule: Q01DX005 (ip), vehicle: saline): 99 % of control and 100 % of control
- T/C (dose: 40.0 mg/kg/injection, schedule: Q01DX005 (ip), vehicle: saline): 98 % of control and 101 % of control
- T/C (dose: 80.0 mg/kg/injection, schedule: Q01DX005 (ip), vehicle: saline): 92 % of control and 103 % of control
- T/C (dose: 160.0 mg/kg/injection, schedule: Q01DX005 (ip), vehicle: saline): 104 % of control and 121 % of control
- T/C (dose: 320.0 mg/kg/injection, schedule: Q01DX005 (ip), vehicle: saline): 97 % of control and 118 % of control

SMILES: CN(C)CC(=O)c1ccc(O)c(O)c1
- T/C (dose: 100.0 mg/kg/injection, schedule: Q01DX005 (ip), vehicle: saline): 100 % of control
- T/C (dose: 200.0 mg/kg/injection, schedule: Q01DX005 (ip), vehicle: saline): 94 % of control
- T/C (dose: 400.0 mg/kg/injection, schedule: Q01DX005 (ip), vehicle: saline): 106 % of control
- T/C (dose: 800.0 mg/kg/injection, schedule: Q01DX005 (ip), vehicle: saline): 108 % of control

SMILES: COc1nc(C(Cl)(Cl)Cl)c(Cl)c(OC)c1Cl
- T/C (dose: 25.0 mg/kg/injection, schedule: Q01DX005 (ip), vehicle: Klucel (hydroxypropylcellulose) (HPC)): 94 % of control
- T/C [1]: 107 % of control
- T/C [2]: 114 % of control

SMILES: O=C(O)c1ccc(C(=O)O)c(C(=O)O)c1.[NH-]C1CCCCC1[NH-].[Pt+2]
- T/C (dose: 0.25 mg/kg/injection, schedule: Q01DX005 (ip), vehicle: dextrose): 92 % of control and 101 % of control
- T/C (dose: 0.5 mg/kg/injection, schedule: Q01DX005 (ip), vehicle: dextrose): 100 % of control and 118 % of control
- T/C (dose: 1.0 mg/kg/injection, schedule: Q01DX005 (ip), vehicle: dextrose): 95 % of control and 100 % of control
- T/C (dose: 2.0 mg/kg/injection, schedule: Q01DX005 (ip), vehicle: dextrose): 100 % of control and 105 % of control
- T/C (dose: 4.0 mg/kg/injection, schedule: Q01DX005 (ip), vehicle: dextrose): 98 % of control and 114 % of control

SMILES: C1CN(P2(N3CC3)=NP(N3CC3)(N3CC3)=NP(N3CC3)(N3CC3)=N2)CCO1 (stereo unspecified)
- T/C (dose: 20.0 mg/kg/injection, schedule: Q01DX001 (ip), vehicle: saline): 101 % of control
- T/C (dose: 40.0 mg/kg/injection, schedule: Q01DX001 (ip), vehicle: saline): 102 % of control
- T/C (dose: 80.0 mg/kg/injection, schedule: Q01DX001 (ip), vehicle: saline): 96 % of control

SMILES: Nc1ncnc2c1ncn2C1OC(CO)C(O)C1O (stereo unspecified)
- T/C [3]: 101 % of control
- T/C [4]: 92 % of control
- T/C [5]: 96 % of control
- T/C (dose: 512.0 mg/kg/injection, schedule: Q01DX005 (ip), vehicle: Klucel (hydroxypropylcellulose) (HPC)): 94 % of control
- T/C (dose: 1024.0 mg/kg/injection, schedule: Q01DX005 (ip), vehicle: Klucel (hydroxypropylcellulose) (HPC)): 98 % of control

SMILES: CN1CCC23c4c5ccc(O)c4OC2C(O)C=CC3C1C5 (stereo unspecified)
- T/C (dose: 32.0 mg/kg/injection, schedule: Q01DX005 (ip), vehicle: saline): 112 % of control
- T/C (dose: 64.0 mg/kg/injection, schedule: Q01DX005 (ip), vehicle: saline): 101 % of control
- T/C (dose: 128.0 mg/kg/injection, schedule: Q01DX005 (ip), vehicle: saline): 99 % of control

SMILES: C[C@]12C=CC(=O)C=C1CC[C@@H]1[C@@H]2CC[C@]2(C)OC(=O)CC[C@@H]12
- T/C (dose: 8.0 mg/kg/injection, schedule: Q01DX005 (ip), vehicle: Klucel (hydroxypropylcellulose) (HPC)): 98 % of control and 100 % of control
- T/C (dose: 8.0 mg/kg/injection, schedule: Q01DX005 (ip), vehicle: saline with Tween-80): 100 % of control and 113 % of control
- T/C (dose: 16.0 mg/kg/injection, schedule: Q01DX005 (ip), vehicle: Klucel (hydroxypropylcellulose) (HPC)): 101 % of control and 106 % of control
- T/C (dose: 16.0 mg/kg/injection, schedule: Q01DX005 (ip), vehicle: saline with Tween-80): 97 % of control and 110 % of control
- T/C (dose: 32.0 mg/kg/injection, schedule: Q01DX005 (ip), vehicle: Klucel (hydroxypropylcellulose) (HPC)): 94 % of control and 95 % of control
- T/C (dose: 32.0 mg/kg/injection, schedule: Q01DX005 (ip), vehicle: saline with Tween-80): 97 % of control and 105 % of control
- T/C [3]: 98 % of control and 101 % of control
- T/C (dose: 64.0 mg/kg/injection, schedule: Q01DX005 (ip), vehicle: saline with Tween-80): 97 % of control and 105 % of control
- T/C [4]: 96 % of control and 86 % of control
- T/C (dose: 128.0 mg/kg/injection, schedule: Q01DX005 (ip), vehicle: saline with Tween-80): 96 % of control and 108 % of control
- T/C [5]: 90 % of control
- T/C (dose: 256.0 mg/kg/injection, schedule: Q01DX005 (ip), vehicle: saline with Tween-80): 105 % of control

SMILES: OC(C1CO1)C(O)C1CO1 (stereo unspecified)
- T/C (dose: 0.25 mg/kg/injection, schedule: Q01DX005 (ip), vehicle: saline): 112 % of control
- T/C (dose: 0.5 mg/kg/injection, schedule: Q01DX005 (ip), vehicle: water): 115 % of control
- T/C (dose: 1.0 mg/kg/injection, schedule: Q01DX001 (ip), vehicle: saline): 94 % of control and 121 % of control
- T/C (dose: 1.0 mg/kg/injection, schedule: Q01DX005 (ip), vehicle: water): 112 % of control
- T/C (dose: 1.0 mg/kg/injection, schedule: Q#A X002 (ip), vehicle: water): 105 % of control
- T/C (dose: 2.0 mg/kg/injection, schedule: Q01DX001 (ip), vehicle: saline): 113 % of control
- T/C (dose: 2.0 mg/kg/injection, schedule: Q01DX001 (ip), vehicle: water): 105 % of control and 110 % of control and 118 % of control
- T/C (dose: 2.0 mg/kg/injection, schedule: Q01DX005 (ip), vehicle: water): 124 % of control
- T/C (dose: 2.0 mg/kg/injection, schedule: Q#A X002 (ip), vehicle: water): 112 % of control
- T/C (dose: 4.0 mg/kg/injection, schedule: Q01DX001 (ip), vehicle: saline): 113 % of control
- T/C (dose: 4.0 mg/kg/injection, schedule: Q01DX001 (ip), vehicle: water): 116 % of control and 117 % of control
- T/C (dose: 4.0 mg/kg/injection, schedule: Q01DX005 (ip), vehicle: water): 181 % of control
- T/C (dose: 8.0 mg/kg/injection, schedule: Q01DX001 (ip), vehicle: saline): 113 % of control
- T/C (dose: 8.0 mg/kg/injection, schedule: Q01DX001 (ip), vehicle: water): 151 % of control
- T/C (dose: 8.0 mg/kg/injection, schedule: Q#A X002 (ip), vehicle: water): 175 % of control
- T/C (dose: 16.0 mg/kg/injection, schedule: Q01DX001 (ip), vehicle: saline): 150 % of control and 166 % of control
- T/C (dose: 16.0 mg/kg/injection, schedule: Q01DX001 (ip), vehicle: water): 175 % of control

SMILES: N=[N+]=CC(=O)CCC(NC(=O)C(CCC(=O)C=[N+]=N)NC(=O)CCC(N)C(=O)O)C(=O)O (stereo unspecified)
- T/C (dose: 0.05 mg/kg/injection, schedule: Q01DX005 (ip), vehicle: Klucel (hydroxypropylcellulose) (HPC)): 100 % of control and 106 % of control
- T/C (dose: 0.1 mg/kg/injection, schedule: Q01DX005 (ip), vehicle: Klucel (hydroxypropylcellulose) (HPC)): 90 % of control and 107 % of control
- T/C (dose: 0.2 mg/kg/injection, schedule: Q01DX005 (ip), vehicle: Klucel (hydroxypropylcellulose) (HPC)): 99 % of control and 108 % of control
- T/C (dose: 0.4 mg/kg/injection, schedule: Q01DX005 (ip), vehicle: Klucel (hydroxypropylcellulose) (HPC)): 97 % of control and 114 % of control

SMILES: CC(=O)OC1COC(NC(=O)N(CCCl)N=O)C(OC(C)=O)C1OC(C)=O (stereo unspecified)
- T/C (dose: 0.18 mg/kg/injection, schedule: Q01DX009 (ip), vehicle: saline with Tween-80): 103 % of control
- T/C (dose: 0.38 mg/kg/injection, schedule: Q01DX009 (ip), vehicle: saline with Tween-80): 117 % of control
- T/C (dose: 0.75 mg/kg/injection, schedule: Q01DX005 (ip), vehicle: saline with Tween-80): 113 % of control
- T/C [6]: 96 % of control and 121 % of control
- T/C [7]: 91 % of control
- T/C (dose: 3.0 mg/kg/injection, schedule: Q01DX009 (ip), vehicle: saline with Tween-80): 178 % of control
- T/C [8]: 107 % of control
- T/C (dose: 6.0 mg/kg/injection, schedule: Q01DX009 (ip), vehicle: saline with Tween-80): 165 % of control
- T/C [9]: 158 % of control

SMILES: CC(=O)Nc1ccc(/C=N/NC(N)=S)cc1
- T/C [1]: 93 % of control
- T/C [2]: 91 % of control
- T/C (dose: 200.0 mg/kg/injection, schedule: Q01DX005 (ip), vehicle: Klucel (hydroxypropylcellulose) (HPC)): 90 % of control
- T/C (dose: 400.0 mg/kg/injection, schedule: Q01DX005 (ip), vehicle: Klucel (hydroxypropylcellulose) (HPC)): 91 % of control
- T/C (dose: 800.0 mg/kg/injection, schedule: Q01DX005 (ip), vehicle: Klucel (hydroxypropylcellulose) (HPC)): 112 % of control

SMILES: CC(C)(C)N1CC1CNC(=O)C(=O)NCC1CN1C(C)(C)C (stereo unspecified)
- T/C [6]: 96 % of control
- T/C [7]: 102 % of control and 112 % of control
- T/C (dose: 3.12 mg/kg/injection, schedule: Q01DX005 (ip), vehicle: saline with Tween-80): 112 % of control
- T/C [8]: 102 % of control and 114 % of control
- T/C (dose: 6.25 mg/kg/injection, schedule: Q01DX005 (ip), vehicle: saline with Tween-80): 116 % of control
- T/C [9]: 115 % of control and 119 % of control
